Reference: US7049331B2, “1,2,4-thiadiazole derivatives as melanocortin receptor modulators” (Ortho-McNeil Pharmaceutical, Inc., priority 2001, dated 2006)

Experiments:
human sebocytes = test: cells; assay type: cell-based; conditions: read-out: % Inh Unknown lipid synthesis
[1] = test system: human skin transplanted to the SCID mouse; test: Sebum production: Human Skin-SCID Mouse Chimera Model; assay type: in vivo; conditions: for % Inh Squalene (Human Sebaceous Lipids) / % Inh Triglycerides (Human Sebaceous Lipids) / % Inh W/E (Human Sebaceous Lipids): 11 Day Treatment; for % Inh Cholesterol Ester, Lipid Accumulation / % Inh Cholesterol, Lipid Accumulation / % Inh Cholesterol, Sebaceous Lipid Synthesis / % Inh Squaline, Lipid Accumulation / % Inh Squaline, Sebaceous Lipid Synthesis / % Inh Triglycerides, Lipid Accumulation / % Inh Triglycerides, Sebaceous Lipid Synthesis / % Inh Wax Esters, Lipid Accumulation / % Inh Wax Esters, Sebaceous Lipid Synthesis: 30 Day Treatment
Excerpt: C.B-17 scid/scid mice (Taconic, Germantown, N.Y.) were used for grafting at 5–6 weeks of age. Full thickness human facial skin was shaved to ˜0.4 mm using a Forman Dermatome. The skin shavings were washed 3 times in antibiotics and antimycotics (penicillin, streptomycin, fungizone) (Life technologies) in Dulbecco's Modified Eagle Medium (DMEM, Life Technologies). Eliptical skin ˜2.0–2.5×1.0–1.5 was grafted onto the prepared graft bed and sutured using 4.0 silk. During surgical procedures the mice were anaesthetized using a mixture of Ketaset (0.16 mg/g body weight) and Rompun (8.0 μg/g body weight).
It is well accepted that the wound healing process of the transplanted skin in the SCID mouse takes one month, at which time the human skin can be used for experimental purposes. […] Maximum size of the glands was observed 3 month post transplantation. The glands retained their capability to produce human specific sebum and the glandular tissue expressed human specific markers including MC5-R. Since glands reached their maximum size at 2–3 month post transplantation the effects of inhibitors of sebum secretion was tested at this point.
Mice at 2–3 month post transplantation with human facial skin were used for the studies. The graft area was treated with the test compound at the desired concentration(s) dissolved in polyethylene glycol-ethanol (20 μl/2 cm^2). Controls were treated with vehicle alone. The test compounds were applied daily, excluding weekends. Sebum secretion was determined using Sebutape at 15 days and 30 days following treatment.
The termination of the experiment was determined by preliminary clinical evaluation of sebum production using SEBUTAPE. At this time human skin grafts were excised and representative samples were collected for histological evaluation. More particularly, 2 mm punch biopsies were prepared and used for evaluation of lipid synthesis and total lipid accumulation in the treated tissues.
The collected—2 mm punch biopsies were placed individually into 96 well plates in Krebs buffer and labeled with 10 μCi of ^14C acetate for 3 hours. Following this labeling period the samples were washed in medium and 5 biopsies pooled, weighed, and used for lipid extraction. The lipid extraction and analysis by HPTLC was the same as described for tissue culture derived cells. […]

Hippocampal Cells = test: Neurite Cell Outgrowth Assay, hippocampal cells; assay type: cell-based; conditions: Rattus norvegicus; 50 nM; percent change over the vehicle response; NA = no change/not active
Outline: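 Rat E18 hippocampal or cortical neurons plated at 30,000 cells/well, treated 24 h after plating with compound at 50 nM, refreshed on day 3. At one week, fixed and MAP-2 immunostained with FITC secondary, read by fluorescence; outgrowth given as percent change versus vehicle.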

[2] = target: T1, melanocortin MC-4 receptor (Homo sapiens, UniProt P32245); test: MC-4 receptor binding (Filtration); conditions: cell prints its own unit nm in the Filtration (μM) column; read-out: IC50 MC-4 (Filtration)
T1 construct: purchased Receptor Biology Inc
T1 sequence (P32245 whole entry): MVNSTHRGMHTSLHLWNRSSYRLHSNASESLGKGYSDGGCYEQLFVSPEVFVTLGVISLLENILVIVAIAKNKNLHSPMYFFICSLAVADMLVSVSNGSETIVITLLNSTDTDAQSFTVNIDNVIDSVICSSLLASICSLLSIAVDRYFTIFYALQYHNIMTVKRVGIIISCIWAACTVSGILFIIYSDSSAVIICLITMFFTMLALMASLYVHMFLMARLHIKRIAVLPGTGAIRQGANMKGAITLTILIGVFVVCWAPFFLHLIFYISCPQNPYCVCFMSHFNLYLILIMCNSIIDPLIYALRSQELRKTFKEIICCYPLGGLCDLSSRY
Procedure: The procedures described above for the melanocortin MC-4 receptor were repeated for the melanocortin MC-3 receptor. Following the procedures described, representative compounds of the present invention were tested for binding in the MC-4 and/or MC-3 assay, as listed in Table 4.

[3] = 30 days of topical treatment with 0.05% and 0.01% solution

## COc1ccccc1-c1nc(Nc2ccccc2)s[n+]1-c1ccccc1OC.[Br-] [Compound 74, 2-(2-methoxyphenyl)-3-(2-methoxyphenyl)-5-phenylamino-[1,2.4]thiadiazol-2-ium]
Human sebocytes
  inhibition at 0.4 µM: 75%
  inhibition at 0.6 µM: 80%
[1]; 0.01% topical
  % Inh Squalene (Human Sebaceous Lipids): 0%
  % Inh Triglycerides (Human Sebaceous Lipids): 0%
  % Inh W/E (Human Sebaceous Lipids): 25%
  % Inh Cholesterol Ester, Lipid Accumulation: 44%
  % Inh Cholesterol, Lipid Accumulation: 33%
  % Inh Cholesterol, Sebaceous Lipid Synthesis: 33%
  % Inh Squaline, Lipid Accumulation: 82%
  % Inh Squaline, Sebaceous Lipid Synthesis: 80%
  % Inh Triglycerides, Lipid Accumulation: 75%
  % Inh Triglycerides, Sebaceous Lipid Synthesis: 75%
  % Inh Wax Esters, Lipid Accumulation: 86%
  % Inh Wax Esters, Sebaceous Lipid Synthesis: 86%
[1]; 0.05% topical
  % Inh Cholesterol Ester, Lipid Accumulation: 21%
  % Inh Cholesterol, Lipid Accumulation: 82%
  % Inh Cholesterol, Sebaceous Lipid Synthesis: 82%
  % Inh Squaline, Lipid Accumulation: 73%
  % Inh Squaline, Sebaceous Lipid Synthesis: 90%
  % Inh Triglycerides, Lipid Accumulation: 90%
  % Inh Triglycerides, Sebaceous Lipid Synthesis: 90%
  % Inh Wax Esters, Lipid Accumulation: 93%
  % Inh Wax Esters, Sebaceous Lipid Synthesis: 93%
[1]; 0.1% topical
  % Inh Squalene (Human Sebaceous Lipids): 70%
  % Inh Triglycerides (Human Sebaceous Lipids): 50%
  % Inh W/E (Human Sebaceous Lipids): 80%
[1]; 0.5% topical
  % Inh Squalene (Human Sebaceous Lipids): 0%
  % Inh Triglycerides (Human Sebaceous Lipids): 0%
  % Inh W/E (Human Sebaceous Lipids): 10%
[1]; [3]
  de novo synthesis of sebaceous lipids: significantly decreased
  total sebaceous lipid accumulation: significantly decreased
[1]; topical treatment for 15 days with 0.05% and 0.005% solutions
  down regulation of sebaceous lipids: not sufficient to down regulate the lipids
[1]; topical treatment with 0.1% solution
  Visual evaluation of the sebaceous gland: visible shrinkage of the sebaceous gland and down regulation of sebaceous lipids

## COc1ccc(N(C)c2nc(-c3ccccc3)[n+](-c3ccc(C)cc3)s2)cc1 [Compound 50]
Hippocampal Cells
  activation at 0.05 µM: 46%

## c1ccc(CNc2nc(-c3ccccc3)[n+](-c3ccccc3)s2)cc1 [Compound 84]
[2]
  IC50: 0.082 µM
